In patent US9796700B2 (Celgene CAR LLC, priority 2013, dated 2017):
Where two headings read alike, the source gives them in different places.

What was measured:
[1] = biological target: Erk1 (Homo sapiens (Human), UniProt P27361); experiment: Protein Mass Modification Assay (intact protein MALDI); type: binding
How it was run: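 Percent covalent modification comes from the intact-protein MALDI centroid mass shift, treated versus control, divided by compound MW. Before analysis, human Erk1 was exposed to compound at 10-fold excess over protein for 60 min at room temperature.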

[2] = tested on: ERK1 phosphorylation of its substrate RSK in HT29 cells; experiment: pRSK MSD Assay in HT29 cells; type: cell-based; conditions: read-out: ERK1 PRSK MSD HT29 EC50
Experimental: The protocol below describes an assay to measure the kinase activity of ERK1 to phosphorylate its substrate, RSK, in the presence of a test compound. This experiment was conducted using a Mesoscale Discovery plate. The day before the assay, HT29 cells were split and plated at 50,000 cells/well in complete growth media. After allowing cells to adhere, the media was removed and replaced with media containing 0.1% FBS and incubated overnight. Blank MDS plates were coated with 25 μl/well RSK capture antibody and incubated at 4° C. overnight. The next day, the media was removed and replaced with 100 μl of media containing a test compound and incubated for 120 minutes at 37° C. The media was removed and replaced with 55 μl of well lysis buffer with protease and phosphatase inhibitors provided in the kit, followed by incubation at 4° C. for 30 minutes. 50 μl of lysate was transferred to a blocked MSD plate, followed by incubation at room temperature for 2 hours under constant shaking. The plate was washed 3 times with MSD wash buffer (cat#R617TX), and 25 μl/well phospho-RSK (pRSK) detection antibody was added with an appropriate Sulfo-tagged anti-species detection antibody diluted in 1% BSA in MSD wash buffer. This mixture was incubated for 1 hour at room temperature under constant shaking. The plate was washed 3 times, and 150 μl 1×MSD read buffer was added, followed by signal detection in an MSD plate reader.

[3] = biological target: MEK1 activated ERK1 (Homo sapiens (Human), UniProt P27361); experiment: Omnia continuous-read kinase assay for potency against MEK1 activated ERK1; type: biochemical; conditions: MEK1 activated ERK1, WT, ATP at KM
How it was run: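 Apparent IC50 came from initial reaction slopes (RFU vs time) plotted against log inhibitor with a variable-slope fit. Reactions were started with ERK1 (4 nM final) added to 50 μM ATP, roughly at its appKM, and 10 μM Sox-conjugated ST17 peptide in 20 mM Tris pH 7.5, 5 mM MgCl2. Fluorescence was monitored every 71 seconds.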

[4] = tested on: HT-29 cells; experiment: Measurement of inhibition of cancer cell proliferation (CellTiterGlo); type: cell-based; conditions: Homo sapiens, 72 hours
Experimental: Measurement of Inhibition of Cancer Cell Proliferation
HT-29 cells were split and 3000 cells in 100 μl of growth medium were added per well of a flat-bottom 96-well plate. A two-fold test compound solution in serum-free RPM1640 was made, starting at 5,000 nM. Then, 3-fold serial dilutions were made across the plate from well 1 to well 11. Well 12, the last well in a row on the plate, was left as untreated control. 100 μl compound solutions were then transferred to the wells, so the total volume of media was 200 μl per well. Plates were returned to a 37° C. incubator, and the cells were cultured for 72 hours. To measure cell proliferation after 72 hours, media was discarded from the plates, 50 μl/well of fresh medium was added, and 50 μl CellTiterGlo solution was added (Promega Cat#G7573). The plate was covered with a dark lid and incubated for 10 min. A sealing tape was applied to the bottom of the plate, and the plate was read in a luminescence plate reader. […] A 2-fold serial dilution was used to generate 8 cell densities from 50,000-390 cells per well in 50 μl media. 50 μl CellTiterGlo was added per well, and the plate was read in a luminescence plate reader after 10 min. The reading was plotted vs. cell number to generate a standard curve and the equation of the curve fit. The compound-treated sample luminescence readings were converted to cell numbers using the equation. The percent of inhibition, using untreated control as 100% growth, was then calculated. GI50 was then calculated by GraphPad Prism.

[5] = Homo sapiens, HT-29, HT29 cells

Chain of Erk1 (P27361 whole entry, looked up): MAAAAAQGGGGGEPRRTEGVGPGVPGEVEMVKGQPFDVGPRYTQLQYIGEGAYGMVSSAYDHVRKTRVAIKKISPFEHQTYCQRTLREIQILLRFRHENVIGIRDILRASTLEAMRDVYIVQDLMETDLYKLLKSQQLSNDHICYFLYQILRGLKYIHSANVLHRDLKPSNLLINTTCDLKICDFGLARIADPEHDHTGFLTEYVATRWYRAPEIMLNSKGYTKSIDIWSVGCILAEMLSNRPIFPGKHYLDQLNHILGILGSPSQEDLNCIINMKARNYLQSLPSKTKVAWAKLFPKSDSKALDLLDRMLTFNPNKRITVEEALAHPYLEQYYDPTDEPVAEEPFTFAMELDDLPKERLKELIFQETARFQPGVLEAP
Chain of MEK1 activated ERK1 (P27361 whole entry): as the sequence (P27361 whole entry, looked up) above

Structure (SMILES)	ERK1 Mass Mod (%) [1]	EC50 [2, 5] [nM]	IC50 [3] [nM]	EC50 ([2]; HT29 cells) [nM]	GI50 [4] [nM]
C=CC(=O)Nc1ccccc1Nc1nc(NC2CCC(=O)CC2)ncc1C(F)(F)F [Compound I-23, N-(2-((2-((4-Oxocyclohexyl)amino)-5-(trifluoromethyl)pyrimidin-4-yl)amino)phenyl)acrylamide]	E (provided a mass modification of ≧70%)	101 to 500	< 100		
C=C(C)S(=O)(=O)Nc1ccccc1Nc1nc(NC2CCC(=O)CC2)ncc1C(F)(F)F [Compound I-40, N-(2-((2-((4-Oxocyclohexyl)amino)-5-(trifluoromethyl)pyrimidin-4-yl)amino)phenyl)prop-1-ene-2-sulfonamide]	F (provided a mass modification of 31-69%)	> 1000	< 100		
C=CC(=O)Nc1cc(C)ccc1Nc1nc(N[C@H]2CCCN(C(=O)CC)C2)ncc1C(F)(F)F [Compound I-41, (S)—N-(5-Methyl-2-((2-((1-propionylpiperidin-3-yl)amino)-5-(trifluoromethyl)pyrimidin-4-yl)amino)phenyl)acrylamide]	E (provided a mass modification of ≧70%)	101 to 500	< 100		
C/C=C/S(=O)(=O)Nc1cc(F)ccc1Nc1nc(N[C@H]2CCCN(C(=O)CO)C2)ncc1C(F)(F)F [Compound I-48, (S,E)-N-(5-Fluoro-2-((2-((1-(2-hydroxyacetyl)piperidin-3-yl)amino)-5-(trifluoromethyl)pyrimidin-4-yl)amino)phenyl)prop-1-ene-1-sulfonamide]	G (proived a mass modification ≦30%)	> 1000	< 100		
C=CC(=O)Nc1ccccc1Nc1nc(Nc2ccc(N3CCN(C(C)=O)CC3)cc2OC)ncc1C(F)(F)F [Compound I-66, N-(2-((2-((4-(4-Acetylpiperazin-1-yl)-2-methoxyphenyl)amino)-5-(trifluoromethyl)pyrimidin-4-yl)amino)phenyl)acrylamide]	E (key: E: provided a mass modification of ≧70%; F: provided a mass modification of 31-69%; G: proived a mass modification ≦30%)				101 to 500
C=CC(=O)Nc1ccccc1Nc1nc(NC2CCOCC2)ncc1Cl [Compound I-108, N-(2-((5-chloro-2-((tetrahydro-2H-pyran-4-yl)amino)pyrimidin-4-yl)amino)phenyl) acrylamide]	E (provided a mass modification of ≧70%)	< 100	< 100		
C=CC(=O)Nc1ccccc1Nc1nc(N[C@H]2CC[C@@H](F)CC2)ncc1C(F)(F)F [Compound I-110, N-(2-((2-(cis-(4-fluorocyclohexyl)amino)-5-(trifluoromethyl)pyrimidin-4-yl)amino)phenyl)acrylamide]	E (provided a mass modification of ≧70%)	101 to 500	101 to 500		
C=CC(=O)Nc1ccccc1Nc1nc(N[C@H]2CC[C@H](F)CC2)ncc1C(F)(F)F [Compound I-111, N-(2-((2-(trans-(4-fluorocyclohexyl)amino)-5-(trifluoromethyl)pyrimidin-4-yl)amino)phenyl)acrylamide]	E (provided a mass modification of ≧70%)		101 to 500	101 to 500	
C=CC(=O)Nc1cc(Cl)ccc1Nc1nc(Nc2cc(OC)ncc2C)ncc1Cl [Compound I-248, N-(5-chloro-2-((5-chloro-2-((2-methoxy-5-methylpyridin-4-yl)amino)pyrimidin-4-yl)amino)phenyl)acrylamide]	E (provided a mass modification of ≧70%)	101 to 500	< 100		
CC(C)=CC(=O)c1ccccc1Oc1nc(Nc2ccc(F)cc2C)ncc1C(N)=O [Compound I-272, 2-((4-fluoro-2-methylphenyl)amino)-4-(2-(3-methylbut-2-enoyl)phenoxy)pyrimidine-5-carboxamide]	G (proived a mass modification ≦30%)	> 1000	> 1000		

Second part, led by results:

ERK1 Mass Mod (%) [1]	EC50 [2, 5] [nM]	IC50 [3] [nM]	EC50 ([2]; HT29 cells) [nM]	Structure (SMILES)	GI50 [4] [nM]
	> 1000	> 1000		CCC(=O)Nc1ccccc1Nc1nc(Nc2ccc(N(CC)C(C)=O)cc2C#N)ncc1Cl [Compound I-316, N-(2-((5-chloro-2-((2-cyano-4-(N-ethylacetamido)phenyl)amino)pyrimidin-4-yl)amino)phenyl)propionamide]	
E (provided a mass modification of ≧70%)	101 to 500	< 100		C=CC(=O)Nc1ccccc1Nc1nc(Nc2cc(OC)nc(N3CCN(C)CC3)c2)ncc1C(F)(F)F [Compound I-324, N-(2-((2-((2-methoxy-6-(4-methylpiperazin-1-yl)pyridin-4-yl)amino)-5-(trifluoromethyl)pyrimidin-4-yl)amino)phenyl)acrylamide]	
E (provided a mass modification of ≧70%)	> 1000	> 1000		C=CC(=O)Nc1ccccc1Nc1nc(Nc2c[nH]nc2C)ncc1C(F)(F)F [Compound I-330, N-(2-((2-((3-methyl-1H-pyrazol-4-yl)amino)-5-(trifluoromethyl)pyrimidin-4-yl)amino)phenyl)acrylamide]	
E (provided a mass modification of ≧70%)	101 to 500	> 1000		C=CC(=O)Nc1cc(C)ccc1Nc1nc(Nc2cnnc(Cl)c2)ncc1C(F)(F)F [Compound I-331, N-(2-((2-((6-chloropyridazin-4-yl)amino)-5-(trifluoromethyl)pyrimidin-4-yl)amino)-5-methylphenyl)acrylamide]	
E (provided a mass modification of ≧70%)	101 to 500	> 1000		C=CC(=O)Nc1cc(C)ccc1Nc1nc(Nc2cc(OC)cc(OC)c2)ncc1C(F)(F)F [Compound I-339, N-(2-((2-((3,5-dimethoxyphenyl)amino)-5-(trifluoromethyl)pyrimidin-4-yl)amino)-5-methylphenyl)acrylamide]	
E (provided a mass modification of ≧70%)	< 100	< 100		C=CC(=O)Nc1cc(C)ccc1Nc1nc(Nc2nc(OC)ncc2Cl)ncc1C(F)(F)F [Compound I-344, N-(2-((2-((5-chloro-2-methoxypyrimidin-4-yl)amino)-5-(trifluoromethyl)pyrimidin-4-yl)amino)-5-methylphenyl)acrylamide]	
E (provided a mass modification of ≧70%)	101 to 500	101 to 500		C=CC(=O)Nc1cc(C)ccc1Nc1nc(Nc2nc(OC)ncc2C)ncc1C(F)(F)F [Compound I-347, N-(2-((2-((2-methoxy-5-methylpyrimidin-4-yl)amino)-5-(trifluoromethyl)pyrimidin-4-yl)amino)-5-methylphenyl)acrylamide]	
G (proived a mass modification ≦30%)	501 to 999	> 1000		C=CC(=O)Nc1cc(C)ccc1Nc1nc(Nc2cc(OC)ncn2)ncc1C(F)(F)F [Compound I-348, N-(2-((2-((6-methoxypyrimidin-4-yl)amino)-5-(trifluoromethyl)pyrimidin-4-yl)amino)-5-methylphenyl)acrylamide]	
G (proived a mass modification ≦30%)	> 1000	> 1000		CCC(=O)Nc1cc(C)ccc1Nc1nc(Nc2cc(OC)ncc2C)ncc1C(F)(F)F [Compound I-352, N-(2-((2-((2-methoxy-5-methylpyridin-4-yl)amino)-5-(trifluoromethyl)pyrimidin-4-yl)amino)-5-methylphenyl)propionamide]	
G (proived a mass modification ≦30%)	> 1000	> 1000		COc1cc(Nc2ncc(C(F)(F)F)c(Nc3ccc(C)cc3N)n2)c(C)cn1 [Compound I-353, N^4-(2-amino-4-methylphenyl)-N^2-(2-methoxy-5-methylpyridin-4-yl)-5-(trifluoromethyl)pyrimidine-2,4-diamine]	
